For 38 compounds, IC50 results are on record in patent publication US10457655B2, “Compounds and compositions for inhibition of FASN” (FORMA Therapeutics, Inc., priority 2013, dated 2019).

SMILES strings stand for the structures.

Chain of FASN enzyme (P49327 whole entry): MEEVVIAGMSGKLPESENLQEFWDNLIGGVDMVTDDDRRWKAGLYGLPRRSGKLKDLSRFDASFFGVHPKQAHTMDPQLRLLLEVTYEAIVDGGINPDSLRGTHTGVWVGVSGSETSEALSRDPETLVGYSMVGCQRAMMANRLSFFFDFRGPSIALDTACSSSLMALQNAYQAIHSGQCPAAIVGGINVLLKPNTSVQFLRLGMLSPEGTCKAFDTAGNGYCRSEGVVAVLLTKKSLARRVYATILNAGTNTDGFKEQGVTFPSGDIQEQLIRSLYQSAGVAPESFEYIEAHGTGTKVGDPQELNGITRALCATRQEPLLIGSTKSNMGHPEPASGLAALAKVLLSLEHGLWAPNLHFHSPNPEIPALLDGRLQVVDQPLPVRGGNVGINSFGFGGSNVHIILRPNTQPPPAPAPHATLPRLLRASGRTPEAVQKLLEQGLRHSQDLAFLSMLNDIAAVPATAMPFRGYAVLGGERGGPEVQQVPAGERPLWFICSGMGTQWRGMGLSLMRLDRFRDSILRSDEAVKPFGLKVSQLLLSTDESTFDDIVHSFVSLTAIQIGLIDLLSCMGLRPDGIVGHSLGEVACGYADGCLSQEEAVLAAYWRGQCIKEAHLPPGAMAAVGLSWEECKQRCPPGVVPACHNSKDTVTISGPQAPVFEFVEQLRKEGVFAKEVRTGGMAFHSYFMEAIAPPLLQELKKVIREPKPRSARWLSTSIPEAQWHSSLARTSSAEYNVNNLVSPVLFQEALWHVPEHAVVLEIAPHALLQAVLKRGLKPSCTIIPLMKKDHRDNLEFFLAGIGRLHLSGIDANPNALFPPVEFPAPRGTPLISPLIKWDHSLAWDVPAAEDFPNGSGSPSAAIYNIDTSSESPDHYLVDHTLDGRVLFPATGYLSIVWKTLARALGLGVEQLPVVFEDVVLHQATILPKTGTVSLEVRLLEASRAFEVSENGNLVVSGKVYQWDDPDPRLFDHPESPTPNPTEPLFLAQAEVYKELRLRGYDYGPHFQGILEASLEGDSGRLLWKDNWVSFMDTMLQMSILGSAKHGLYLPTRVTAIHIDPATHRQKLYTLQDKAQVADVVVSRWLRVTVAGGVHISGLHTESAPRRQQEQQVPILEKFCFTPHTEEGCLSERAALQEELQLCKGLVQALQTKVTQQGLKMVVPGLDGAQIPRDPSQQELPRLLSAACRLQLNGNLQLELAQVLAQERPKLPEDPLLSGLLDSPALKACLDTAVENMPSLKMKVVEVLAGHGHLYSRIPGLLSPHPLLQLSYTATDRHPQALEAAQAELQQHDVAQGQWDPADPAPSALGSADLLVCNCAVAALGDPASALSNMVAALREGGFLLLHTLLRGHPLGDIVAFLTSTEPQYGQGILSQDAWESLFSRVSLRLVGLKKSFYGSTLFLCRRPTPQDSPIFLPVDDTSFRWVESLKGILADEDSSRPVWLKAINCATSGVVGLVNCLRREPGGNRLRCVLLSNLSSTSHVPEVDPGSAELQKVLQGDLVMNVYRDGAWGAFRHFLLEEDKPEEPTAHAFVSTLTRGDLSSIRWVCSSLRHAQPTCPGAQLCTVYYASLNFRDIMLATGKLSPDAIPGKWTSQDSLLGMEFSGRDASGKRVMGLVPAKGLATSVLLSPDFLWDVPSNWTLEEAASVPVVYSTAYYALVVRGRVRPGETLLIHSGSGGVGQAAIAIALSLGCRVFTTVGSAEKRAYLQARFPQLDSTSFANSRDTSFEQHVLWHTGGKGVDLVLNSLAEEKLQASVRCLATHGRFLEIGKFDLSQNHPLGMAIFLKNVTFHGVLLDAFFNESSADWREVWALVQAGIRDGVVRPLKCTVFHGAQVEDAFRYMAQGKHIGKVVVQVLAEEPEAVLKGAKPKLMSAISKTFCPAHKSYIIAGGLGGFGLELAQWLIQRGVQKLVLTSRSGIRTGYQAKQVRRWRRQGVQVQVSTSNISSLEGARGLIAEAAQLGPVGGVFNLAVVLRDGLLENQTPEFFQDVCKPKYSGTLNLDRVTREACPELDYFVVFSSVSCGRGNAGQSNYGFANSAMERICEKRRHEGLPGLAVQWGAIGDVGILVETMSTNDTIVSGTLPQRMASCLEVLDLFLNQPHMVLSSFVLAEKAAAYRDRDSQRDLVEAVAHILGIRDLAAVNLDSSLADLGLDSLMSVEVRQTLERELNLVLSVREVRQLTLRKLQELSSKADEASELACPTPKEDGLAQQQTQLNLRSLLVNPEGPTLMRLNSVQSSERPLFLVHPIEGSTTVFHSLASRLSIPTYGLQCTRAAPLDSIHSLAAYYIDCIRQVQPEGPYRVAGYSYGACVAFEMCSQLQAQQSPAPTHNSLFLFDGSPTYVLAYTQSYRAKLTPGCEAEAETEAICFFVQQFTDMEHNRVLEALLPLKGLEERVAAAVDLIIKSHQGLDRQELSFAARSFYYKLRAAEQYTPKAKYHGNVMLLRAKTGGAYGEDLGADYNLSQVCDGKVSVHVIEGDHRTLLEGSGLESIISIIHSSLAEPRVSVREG

The first experiment concerns the target FASN enzyme (Homo sapiens, UniProt P49327). The experiment is described as follows: Enzymatic Assay for FASN Inhibitors. The format is biochemical.
Conditions: not given
Here is the method: Assays were performed in a 384-well black plate to measure the inhibition of FASN activities by individual compounds herein disclosed. An aliquot of 250 nL of compound was incubated with 10 μL of 40 nM FASN enzyme in assay buffer (50 mM HEPES pH=7.3, 0.5 mM EDTA, 1 mM Ascorbate, 100 mM NaCl and 0.04% TritonX-100) in each well at 25° C. for 60 minutes. After the plate was centrifuged briefly, 10 μL of substrate mix (20 μM Acetyl-CoA, 60 μM Malonyl-CoA, and 100 μM NADPH in assay buffer) was added to each well. The reaction was maintained at 25° C. for 90 minutes. The reaction was then quenched by adding 10 μL of 90 μM 7-Diethylamino-3-(4′-Maleimidylpheynyl)-4-Methylcoumarin in 50/50 Ethanol/H2O solution. The assay plate was incubated at 25° C. for 15 minutes, and read on a plate reader with excitation and emission wavelength at 360 nm and 530 nm, respectively. The IC50 of a given compound was calculated by fitting the dose response curve with a four parameter logistic equation.
With `O=C(c1ccc(-c2nc3ccc(F)cc3o2)c(F)c1)N1CCN(C(=O)C2(O)CC2)CC1` [1-{4-[3-fluoro-4-(6-fluoro-1,3-benzoxazol-2-yl)benzoyl]piperazine-1-carbonyl}cyclopropan-1-ol], the IC50 was less than 500 nM.
`O=C(c1ccc(-c2ccc(F)cc2Cl)cc1)N1CCN(C(=O)C2(O)CC2)CC1` [1-[(4-{[4-(2-chloro-4-fluorophenyl)phenyl]carbonyl}piperazin-1-yl)carbonyl]cyclopropan-1-ol] returned a half-maximal inhibitory concentration (IC50) of less than 500 nM.
Consider `C[C@H]1CN(C(=O)c2ccc(-c3ccc4cn(C)nc4c3)cc2)CCN1C(=O)C1(O)CC1` [1-[(2S)-2-methyl-4-[4-(2-methyl-2H-indazol-6-yl)benzoyl]piperazine-1-carbonyl]cyclopropan-1-ol], for which the IC50 is less than 500 nM.
`Cc1nn(C)c2ccc(-c3ccc(C(=O)N4CCN(C(=O)C5(O)CC5)CC4)cc3Cl)cc12` [1-{4-[3-chloro-4-(1,3-dimethyl-1H-indazol-5-yl)benzoyl]piperazine-1-carbonyl}cyclopropan-1-ol]: the half-maximal inhibitory concentration (IC50) is less than 500 nM.
For the compound `O=C(c1ccc(-c2nc3ccc(F)cc3o2)cc1F)N1CCN(C(=O)C2(O)CC2)CC1` [1-{4-[2-fluoro-4-(6-fluoro-1,3-benzoxazol-2-yl)benzoyl]piperazine-1-carbonyl}cyclopropan-1-ol], the half-maximal inhibitory concentration (IC50) is less than 500 nM.
The same measure, in the same setting: in the case of `C[C@H]1CN(C(=O)c2ccc(N3CCc4cccnc4C3)cc2)CCN1C(=O)C1(O)CC1` [1-[(2S)-2-methyl-4-[4-(5,6,7,8-tetrahydro-1,7-naphthyridin-7-yl)benzoyl]piperazine-1-carbonyl]cyclopropan-1-ol] it was less than 500 nM.
On the same count and under the same terms, the value for `CCOC(=O)Nc1cccc(-c2ccc(C(=O)N3CCN(C(=O)C4(O)CC4)CC3)cc2)c1` [ethyl N-(3-{4-[4-(1-hydroxycyclopropanecarbonyl)piperazine-1-carbonyl]phenyl}phenyl)carbamate] was less than 500 nM; that for `N#CC1(c2cccc(-c3ccc(C(=O)N4CCN(C(=O)C5(N)CC5)CC4)cc3)c2)CC1` [1-(3-{4-[4-(1-aminocyclopropanecarbonyl)piperazine-1-carbonyl]phenyl}phenyl)cyclopropane-1-carbonitrile] was less than 500 nM; that for `CNC(=O)c1cccc(-c2ccc(C(=O)N3CCN(C(=O)C4(O)CC4)CC3)cc2)c1` [3-{4-[4-(1-hydroxycyclopropanecarbonyl)piperazine-1-carbonyl]phenyl}-N-methylbenzamide] was less than 500 nM.
Turning to `O=C(c1ccc(-c2ccc(Cl)cc2F)c(Cl)c1)N1CCN(C(=O)C2(O)CC2)CC1` [1-{4-[3-chloro-4-(4-chloro-2-fluorophenyl)benzoyl]piperazine-1-carbonyl}cyclopropan-1-ol], the IC50 was less than 500 nM.
The same measure, in the same setting: the value for `O=C(c1ccc(-c2ccc3c(C4CC4)n[nH]c3c2)cc1)N1CCN(C(=O)C2(O)CC2)CC1` [1-{4-[4-(3-cyclopropyl-1H-indazol-6-yl)benzoyl]piperazine-1-carbonyl}cyclopropan-1-ol] was less than 500 nM; that for `Cc1[nH]c2ccccc2c1-c1ccc(C(=O)N2CCN(C(=O)C3(O)CC3)CC2)cc1` [1-{4-[4-(2-methyl-1H-indol-3-yl)benzoyl]piperazine-1-carbonyl}cyclopropan-1-ol] was less than 500 nM; that for `O=C(c1ccc(N2CCc3c([nH]c4ccccc34)C2)cc1)N1CCN(C(=O)C2(O)CC2)CC1` [1-[4-(4-{1H,2H,3H,4H,9H-pyrido[3,4-b]indol-2-yl}benzoyl)piperazine-1-carbonyl]cyclopropan-1-ol] was less than 500 nM.
As to `O=C(c1ccc(-c2cccc(OCC3CC3)c2)cc1)N1CCN(C(=O)C2(O)CC2)CC1`, the IC50 was less than 500 nM.
In the case of `O=C(c1ccc(-c2cccc(S(=O)(=O)C3CC3)c2)cc1F)N1CCN(C(=O)C2(O)CC2)CC1` [1-(4-{4-[3-(cyclopropanesulfonyl)phenyl]-2-fluorobenzoyl}piperazine-1-carbonyl)cyclopropan-1-ol], the IC50 is less than 500 nM.
`Cn1nc2ccc(-c3ccc(C(=O)N4CCN(C(=O)C5(O)CC5)CC4)cc3)cc2n1` came in with a half-inhibitory concentration (IC50) of less than 500 nM.
Still for that read-out and setting: in the case of `O=C(c1ccc(-c2cccc(NS(=O)(=O)CC3CC3)c2)cc1)N1CCN(C(=O)C2(O)CC2)CC1` [1-cyclopropyl-N-(3-{4-[4-(1-hydroxycyclopropanecarbonyl)piperazine-1-carbonyl]phenyl}phenyl)methanesulfonamide] it was less than 500 nM; in that of `O=C(c1ccc(-c2cc(F)c3[nH]ccc3c2)cc1)N1CCN(C(=O)C2(O)CC2)CC1`, less than 500 nM.
The compound `Cn1cnc2cc(-c3ccc(C(=O)N4CCN(C(=O)C5(N)CC5)CC4)cc3)ccc21` [1-{4-[4-(1-methyl-1H-1,3-benzodiazol-5-yl)benzoyl]piperazine-1-carbonyl}cyclopropan-1-amine] had an IC50 of less than 500 nM.
As for `Cn1cnc2cc(-c3ccc(C(=O)N4CCN(C(=O)C5(CO)CC5)CC4)cc3)ccc21` [(1-{4-[4-(1-methyl-1H-1,3-benzodiazol-5-yl)benzoyl]piperazine-1-carbonyl}cyclopropyl)methanol], the IC50 was less than 500 nM.
As to `C[C@@H]1CN(C(=O)C2(O)CC2)CCN1C(=O)c1ccc(-c2ccc(Cl)cc2F)cc1`, the IC50 was less than 500 nM.
The same measure, in the same setting: the value for `COc1ccc2nc(-c3ccc(C(=O)N4CCN(C(=O)C5(O)CC5)CC4)c(F)c3F)ccc2c1` [1-[(4-{[2,3-difluoro-4-(6-methoxyquinolin-2-yl)phenyl]carbonyl}piperazin-1-yl)carbonyl]cyclopropan-1-ol] was less than 500 nM; that for `Cn1ncc2ccc(-c3ccc(C(=O)N4CCN(C(=O)C5(N)CC5)CC4)c(F)c3)cc21` [1-{4-[2-fluoro-4-(1-methyl-1H-indazol-6-yl)benzoyl]piperazine-1-carbonyl}cyclopropan-1-amine] was less than 500 nM; that for `O=C(c1ccc(N2Cc3cccc(F)c3C2)cc1)N1CCN(C(=O)C2(O)CC2)CC1` [1-{4-[4-(4-fluoro-2,3-dihydro-1H-isoindol-2-yl)benzoyl]piperazine-1-carbonyl}cyclopropan-1-ol] was less than 500 nM.
For `CC(C)OC(=O)Nc1cccc(-c2ccc(C(=O)N3CCN(C(=O)C4(O)CC4)CC3)cc2)c1` [propan-2-yl N-(3-{4-[4-(1-hydroxycyclopropanecarbonyl)piperazine-1-carbonyl]phenyl}phenyl)carbamate], the half-inhibitory concentration (IC50) was less than 500 nM.
The compound `Cn1cnc2cc(-c3ccc(C(=O)N4CCN(C(=O)C5(O)CC5)CC4(C)C)cc3)ccc21` had a 50% inhibitory concentration (IC50) of less than 500 nM.
`CC1(C)CN(C(=O)C2(O)CC2)CCN1C(=O)c1ccc(-c2ccc(Cl)cc2F)cc1` [1-{4-[4-(4-chloro-2-fluorophenyl)benzoyl]-3,3-dimethylpiperazine-1-carbonyl}cyclopropan-1-ol] registered a 50% inhibitory concentration (IC50) of less than 500 nM.
The compound `O=C(c1ccc(-c2nc3ccc(Cl)cc3o2)cc1Cl)N1CCN(C(=O)C2(O)CC2)CC1` [1-{4-[2-chloro-4-(6-chloro-1,3-benzoxazol-2-yl)benzoyl]piperazine-1-carbonyl}cyclopropan-1-ol] displayed an IC50 of less than 500 nM.
`Cn1cnc2cc(-c3ccc(C(=O)N4CCN(C(=O)C5(N)CCC5)CC4)cc3)ccc21` yielded a concentration for half-maximal inhibition (IC50) of less than 500 nM.
The compound `Cn1cc2ccc(-c3ccc(C(=O)N4CCN(C(=O)C5(N)CC5)CC4)c(F)c3)cc2n1` [1-{4-[2-fluoro-4-(2-methyl-2H-indazol-6-yl)benzoyl]piperazine-1-carbonyl}cyclopropan-1-amine] displayed a 50% inhibitory concentration (IC50) of less than 500 nM.
On the same count and under the same terms, in the case of `Cn1cnc2cc(-c3ccc(C(=O)N4CCN(C(=O)C5(O)CC5)CC4)cc3Cl)ccc21` [1-{4-[3-chloro-4-(1-methyl-1H-1,3-benzodiazol-5-yl)benzoyl]piperazine-1-carbonyl}cyclopropan-1-ol] it was less than 500 nM.
`O=C(c1ccc(N2Cc3ccccc3C2)cc1)N1CCN(C(=O)C2(O)CC2)CC1` [1-{4-[4-(2,3-dihydro-1H-isoindol-2-yl)benzoyl]piperazine-1-carbonyl}cyclopropan-1-ol] displayed a concentration for half-maximal inhibition (IC50) of less than 500 nM.

The same experiment, now with this note: FASN enzymatic assay; Table 2-2.
`O=C(c1ccc(-c2cnc3ccc(Cl)cn23)cc1)N1CCN(C(=O)C2(O)CC2)CC1` [1-({4-[(4-{6-chloroimidazo[1,2-a]pyridin-3-yl}phenyl)carbonyl]piperazin-1-yl}carbonyl)cyclopropan-1-ol] returned an IC50 of 500 to 5000 nM.
On the same count and under the same terms, the value for `O=C(c1ccc2nc(-c3ccc(F)cc3)sc2c1)N1CCN(C(=O)C2(O)CC2)CC1` [1-[(4-{[2-(4-fluorophenyl)-1,3-benzothiazol-6-yl]carbonyl}piperazin-1-yl)carbonyl]cyclopropan-1-ol] was 500 to 5000 nM; that for `O=C(c1ccc(-c2cccc(OC(F)(F)F)c2F)cc1)N1CCN(C(=O)C2(O)CC2)CC1` [1-{[4-({4-[2-fluoro-3-(trifluoromethoxy)phenyl]phenyl}carbonyl)piperazin-1-yl]carbonyl}cyclopropan-1-ol] was 500 to 5000 nM.

Staying with this experiment, now noted: FASN enzymatic assay; Table 2-3.
Turning to `Cc1ccc(-c2ccc(C(=O)N3CCN(C(=O)C4(O)CC4)CC3)cc2)cn1` [1-[(4-{[4-(6-methylpyridin-3-yl)phenyl]carbonyl}piperazin-1-yl)carbonyl]cyclopropan-1-ol], the half-inhibitory concentration (IC50) was not below 5000 nM.
`C[C@H](O)C(=O)N1CCN(C(=O)c2ccc(-c3ccccc3)cc2)CC1` [(2S)-2-hydroxy-1-{4-[(4-phenylphenyl)carbonyl]piperazin-1-yl}propan-1-one] showed a half-inhibitory concentration (IC50) not below 5000 nM.
Same read-out and setting: the value for `O=C(c1ccc(-c2ccccc2)cc1)N1CCN(C(=O)C2(O)CCCC2)CC1` [1-({4-[(4-phenylphenyl)carbonyl]piperazin-1-yl}carbonyl)cyclopentan-1-ol] was not below 5000 nM.
